{"source": "patent US20050226974A1", "about": "(priority 2004, published 2005)", "origin": "cited, not measured here", "key": {"[1]": {"test_system": "common food spoilage yeasts and moulds", "settings": "most strains of common food spoilage yeasts and moulds"}, "yeasts": {"test_system": "yeasts", "settings": "some yeasts"}}, "data": [{"smiles": "C[C@@H]1C/C=C/C=C/C=C/C=C/[C@H](O[C@@H]2O[C@H](C)[C@@H](O)[C@H](N)[C@@H]2O)C[C@@H]2O[C@](O)(C[C@@H](O)C[C@H]3O[C@@H]3/C=C/C(=O)O1)C[C@H](O)[C@H]2C(=O)O", "note": "[Natamycin]", "values": [{"measurement": "concentrations inhibiting most strains", "setting": "[1]", "value": "1-15 ppm"}, {"measurement": "minimal inhibitory concentrations", "setting": "yeasts", "value": "less than 3 ppm"}, {"measurement": "solubility dependence on pH", "value": "most soluble at high or low pH"}, {"measurement": "maximum solubility", "setting": "in water", "value": "around 40 ppm"}]}]}
